Experimental data taken from patent US20200360520A1, “USE OF RIFAMYCIN-QUINOLIZIDONE COUPLING MOLECULE” (priority 2019, published 2020).
In brackets after ≈: the same amount, converted by molar mass. Where two headings read alike, the source gives them in different places.

Key:
Type in all cases: cell-based
[1] = system: Mycobacterium abscessus; test: MBC test (plating on agar, CFU count); conditions: for Minimum Bactericidal Concentration (MBC): MH Culture Medium; for MBC: Mycobacteroides abscessus, 7H9 Culture Medium, read-out: Minimum Bactericidal Concentration (MBC)
[2] = system: Mycobacterium avium; test: MIC by micro broth dilution method (resazurin microtiter assay); conditions: read-out: Minimum Inhibitory Concentration (MIC)
[3] = system: Mycobacterium abscessus; test: as above; conditions: Mycobacteroides abscessus, read-out: Minimum Inhibitory Concentration (MIC)
[4] = system: Mycobacterium intracellulare; test: as above; conditions: Mycobacterium intracellulare, MH Culture Medium, read-out: Minimum Inhibitory Concentration (MIC)
[5] = system: Mycobacterium kansasii; test: as above; conditions: Mycobacterium kansasii, Mycobacterium kansasii, read-out: Minimum Inhibitory Concentration (MIC)
[6] = system: Mycodacterium chelonei; test: as above; conditions: MH Culture Medium; Chelonei (standard strain); read-out: Minimum Inhibitory Concentration (MIC)
[7] = system: Mycobacterium fortuitum; test: as above; conditions: Mycolicibacterium fortuitum, MH Culture Medium, read-out: Minimum Inhibitory Concentration (MIC)
[8] = system: Mycobacterium massiliense; test: as above; conditions: for MIC: Mycobacteroides abscessus, read-out: Minimum Inhibitory Concentration (MIC)
[9] = system: Mycobacterium kansasii; test: MBC test (plating on agar, CFU count); conditions: Mycobacterium kansasii, Mycobacterium kansasii, read-out: Minimum Bactericidal Concentration (MBC)
[10] = system: Mycobacterium avium; test: MBC test (plating on agar, CFU count); conditions: Mycobacterium avium, read-out: Minimum Bactericidal Concentration (MBC)
[11] = 7H9 Broth, Mycobacterium avium Smooth
[12] = MH Broth, Mycobacterium avium Smooth
[13] = MH Culture Medium, Avium (standard strain)
[14] = MH Culture Medium, clinically isolated strain Avium (S31)
[15] = MH Culture Medium, clinically isolated strain Avium (S123)
[16] = MH Culture Medium, clinically isolated strain Avium (S559)
[17] = MH Culture Medium, clinically isolated strain Avium (S568)
[18] = MH Culture Medium, clinically isolated strain Avium (S577)
[19] = MH Culture Medium, clinically isolated strain Avium (S597)
[20] = MH Culture Medium, clinically isolated strain Avium (S602)
[21] = Intracellulare (standard strain)
[22] = clinically isolated strain Intracellulare (S90)
[23] = clinically isolated strain Intracellulare (S261)
[24] = clinically isolated strain Intracellulare (S269)
[25] = clinically isolated strain Intracellulare (S290)
[26] = clinically isolated strain Intracellulare (S291)
[27] = clinically isolated strain Intracellulare (S298)
[28] = clinically isolated strain Intracellulare (S541)
[29] = clinically isolated strain Intracellulare (S623)
[30] = clinically isolated strain Intracellulare (ZPS)
[31] = clinically isolated strain intracellulare (S442)
[32] = MH Culture Medium, Kansasii (standard strain)
[33] = MH Culture Medium, clinically isolated strain Kansasii (S9)
[34] = MH Culture Medium, clinically isolated strain Kansasii (S199)
[35] = MH Culture Medium, clinically isolated strain Kansasii (S520)
[36] = MH Culture Medium, clinically isolated strain Kansasii (S609)
[37] = clinically isolated strain Fortuitum (S103)
[38] = clinically isolated strain Fortuitum (S111)
[39] = MH Culture Medium, clinically isolated strain Massiliense (D10)
[40] = MH Culture Medium, clinically isolated strain Massiliense (D14)
[41] = MH Culture Medium, clinically isolated strain Massiliense (D18)
[42] = 7H9 Culture Medium, Mycobacterium avium Smooth
[43] = MH Culture Medium, Mycobacterium avium Smooth
[44] = 7H9 Broth, Mycobacterium avium Rough
[45] = MH Broth, Mycobacterium avium Rough
[46] = 7H9 Culture Medium, Mycobacterium avium Rough

Cc1ncc([N+](=O)[O-])n1CCO [Metronidazole, metronidazole]
Minimum Bactericidal Concentration (MBC) [1]: >64 µg/mL
MBC [1]: > 64 µg/mL
MIC [2, 11]: > 64 µg/mL
MIC [2, 12]: > 64 µg/mL
MIC [2, 13]: 8 µg/mL (≈ 46.7 µM)
MIC [2, 14]: 16 µg/mL (≈ 93.5 µM)
MIC [2, 15]: 8 µg/mL (≈ 46.7 µM)
MIC [2, 16]: 8 µg/mL (≈ 46.7 µM)
MIC [2, 17]: 8 µg/mL (≈ 46.7 µM)
MIC [2, 18]: 8 µg/mL (≈ 46.7 µM)
MIC [2, 19]: 8 µg/mL (≈ 46.7 µM)
MIC [2, 20]: 32 µg/mL (≈ 187 µM)
MIC ([3]; 7H9 Broth): > 64 µg/mL
MIC ([3]; MH Broth): > 64 µg/mL
MIC [4, 21]: 8 µg/mL (≈ 46.7 µM)
MIC [4, 22]: 16 µg/mL (≈ 93.5 µM)
MIC [4, 23]: 16 µg/mL (≈ 93.5 µM)
MIC [4, 24]: 16 µg/mL (≈ 93.5 µM)
MIC [4, 25]: 8 µg/mL (≈ 46.7 µM)
MIC [4, 26]: 8 µg/mL (≈ 46.7 µM)
MIC [4, 27]: 16 µg/mL (≈ 93.5 µM)
MIC [4, 28]: 16 µg/mL (≈ 93.5 µM)
MIC [4, 29]: 8 µg/mL (≈ 46.7 µM)
MIC [4, 30]: 8 µg/mL (≈ 46.7 µM)
MIC [4, 31]: 8 µg/mL (≈ 46.7 µM)
MIC ([5]; 7H9 Broth): > 64 µg/mL
MIC ([5]; MH Broth): > 64 µg/mL
MIC [5, 32]: 8 µg/mL (≈ 46.7 µM)
MIC [5, 33]: 8 µg/mL (≈ 46.7 µM)
MIC [5, 34]: 8 µg/mL (≈ 46.7 µM)
MIC [5, 35]: 8 µg/mL (≈ 46.7 µM)
MIC [5, 36]: 8 µg/mL (≈ 46.7 µM)
MIC [6]: 16 µg/mL (≈ 93.5 µM)
MIC ([7]; Fortuitum (standard strain)): 16 µg/mL (≈ 93.5 µM)
MIC [7, 37]: 8 µg/mL (≈ 46.7 µM)
MIC [7, 38]: 16 µg/mL (≈ 93.5 µM)
MIC [8, 39]: 16 µg/mL (≈ 93.5 µM)
MIC [8, 40]: 16 µg/mL (≈ 93.5 µM)
MIC [8, 41]: 8 µg/mL (≈ 46.7 µM)
MBC ([9]; 7H9 Culture Medium): > 64 µg/mL
MBC ([9]; MH Culture Medium): > 64 µg/mL
MBC [10, 42]: > 64 µg/mL
MBC [10, 43]: > 64 µg/mL

CO[C@H]1/C=C/O[C@@]2(C)Oc3c(C)c(O)c4c(O)c(c(/C=N/N5CCN(C)CC5)c(O)c4c3C2=O)NC(=O)/C(C)=C\C=C\[C@H](C)[C@H](O)[C@@H](C)[C@@H](O)[C@@H](C)[C@H](OC(C)=O)[C@@H]1C [Rifampicin, rifampicin]
Minimum Bactericidal Concentration (MBC) [1]: >64 µg/mL
MBC [1]: > 64 µg/mL
MIC [2, 44]: 8 µg/mL (≈ 9.72 µM)
MIC [2, 11]: 0.5 µg/mL (≈ 0.608 µM)
MIC [2, 45]: 8 µg/mL (≈ 9.72 µM)
MIC [2, 12]: 1 µg/mL (≈ 1.22 µM)
MIC [2, 13]: 0.25 µg/mL (≈ 0.304 µM)
MIC [2, 14]: 0.0625 µg/mL (≈ 0.0759 µM)
MIC [2, 15]: 8 µg/mL (≈ 9.72 µM)
MIC [2, 16]: 0.125 µg/mL (≈ 0.152 µM)
MIC [2, 17]: 4 µg/mL (≈ 4.86 µM)
MIC [2, 18]: 0.125 µg/mL (≈ 0.152 µM)
MIC [2, 19]: 8 µg/mL (≈ 9.72 µM)
MIC [2, 20]: 2 µg/mL (≈ 2.43 µM)
MIC ([3]; 7H9 Broth): > 64 µg/mL
MIC ([3]; MH Broth): > 64 µg/mL
MIC [4, 21]: 0.25 µg/mL (≈ 0.304 µM)
MIC [4, 22]: 8 µg/mL (≈ 9.72 µM)
MIC [4, 23]: 16 µg/mL (≈ 19.4 µM)
MIC [4, 24]: 4 µg/mL (≈ 4.86 µM)
MIC [4, 25]: 4 µg/mL (≈ 4.86 µM)
MIC [4, 26]: 4 µg/mL (≈ 4.86 µM)
MIC [4, 27]: 4 µg/mL (≈ 4.86 µM)
MIC [4, 28]: 16 µg/mL (≈ 19.4 µM)
MIC [4, 29]: 8 µg/mL (≈ 9.72 µM)
MIC [4, 30]: 2 µg/mL (≈ 2.43 µM)
MIC [4, 31]: 2 µg/mL (≈ 2.43 µM)
MIC ([5]; 7H9 Broth): 16 µg/mL (≈ 19.4 µM)
MIC ([5]; MH Broth): 16 µg/mL (≈ 19.4 µM)
MIC [5, 32]: 0.125 µg/mL (≈ 0.152 µM)
MIC [5, 33]: 0.125 µg/mL (≈ 0.152 µM)
MIC [5, 34]: 0.0625 µg/mL (≈ 0.0759 µM)
MIC [5, 35]: 0.0625 µg/mL (≈ 0.0759 µM)
MIC [5, 36]: 0.0625 µg/mL (≈ 0.0759 µM)
MIC [6]: > 64 µg/mL
MIC ([7]; Fortuitum (standard strain)): > 64 µg/mL
MIC [7, 37]: > 64 µg/mL
MIC [7, 38]: 64 µg/mL (≈ 77.8 µM)
MIC [8, 39]: > 64 µg/mL
MIC [8, 40]: > 64 µg/mL
MIC [8, 41]: > 64 µg/mL
MBC ([9]; 7H9 Culture Medium): 4 µg/mL (≈ 4.86 µM)
MBC ([9]; MH Culture Medium): 4 µg/mL (≈ 4.86 µM)
MBC [10, 46]: > 64 µg/mL
MBC [10, 42]: 4 µg/mL (≈ 4.86 µM)
MBC [10, 43]: 4 µg/mL (≈ 4.86 µM)

CC[C@H]1OC(=O)[C@H](C)[C@@H](O[C@H]2C[C@@](C)(OC)[C@@H](O)[C@H](C)O2)[C@H](C)[C@@H](O[C@@H]2O[C@H](C)C[C@H](N(C)C)[C@H]2O)[C@](C)(OC)C[C@@H](C)C(=O)[C@H](C)[C@@H](O)[C@]1(C)O [Clarithromycin]
Minimum Bactericidal Concentration (MBC) [1]: >64 µg/mL
MBC [1]: > 64 µg/mL
MIC [2, 44]: > 64 µg/mL
MIC [2, 11]: 32 µg/mL (≈ 42.8 µM)
MIC [2, 45]: > 64 µg/mL
MIC [2, 12]: > 64 µg/mL
MIC [2, 13]: 0.0625 µg/mL (≈ 0.0836 µM)
MIC [2, 14]: 0.125 µg/mL (≈ 0.167 µM)
MIC [2, 15]: 0.5 µg/mL (≈ 0.668 µM)
MIC [2, 16]: 0.25 µg/mL (≈ 0.334 µM)
MIC [2, 17]: 4 µg/mL (≈ 5.35 µM)
MIC [2, 18]: 0.25 µg/mL (≈ 0.334 µM)
MIC [2, 19]: 1 µg/mL (≈ 1.34 µM)
MIC [2, 20]: 1 µg/mL (≈ 1.34 µM)
MIC ([3]; 7H9 Broth): 16 µg/mL (≈ 21.4 µM)
MIC ([3]; MH Broth): 64 µg/mL (≈ 85.6 µM)
MIC [4, 21]: 0.0625 µg/mL (≈ 0.0836 µM)
MIC [4, 22]: 1 µg/mL (≈ 1.34 µM)
MIC [4, 23]: 1 µg/mL (≈ 1.34 µM)
MIC [4, 24]: 1 µg/mL (≈ 1.34 µM)
MIC [4, 25]: 1 µg/mL (≈ 1.34 µM)
MIC [4, 26]: 1 µg/mL (≈ 1.34 µM)
MIC [4, 27]: 2 µg/mL (≈ 2.67 µM)
MIC [4, 28]: 64 µg/mL (≈ 85.6 µM)
MIC [4, 29]: 4 µg/mL (≈ 5.35 µM)
MIC [4, 30]: 1 µg/mL (≈ 1.34 µM)
MIC [4, 31]: 2 µg/mL (≈ 2.67 µM)
MIC ([5]; 7H9 Broth): 2 µg/mL (≈ 2.67 µM)
MIC ([5]; MH Broth): 2 µg/mL (≈ 2.67 µM)
MIC [5, 32]: 0.0625 µg/mL (≈ 0.0836 µM)
MIC [5, 33]: 0.125 µg/mL (≈ 0.167 µM)
MIC [5, 34]: 0.0625 µg/mL (≈ 0.0836 µM)
MIC [5, 35]: 0.0625 µg/mL (≈ 0.0836 µM)
MIC [5, 36]: 0.125 µg/mL (≈ 0.167 µM)
MIC [6]: 0.5 µg/mL (≈ 0.668 µM)
MIC ([7]; Fortuitum (standard strain)): 32 µg/mL (≈ 42.8 µM)
MIC [7, 37]: > 64 µg/mL
MIC [7, 38]: 2 µg/mL (≈ 2.67 µM)
Minimum Inhibitory Concentration (MIC) [8, 41]: 0.0625 µg/mL
MIC [8, 39]: 0.25 µg/mL (≈ 0.334 µM)
MIC [8]: 0.0625 µg/mL (≈ 0.0836 µM)
MBC ([9]; 7H9 Culture Medium): 64 µg/mL (≈ 85.6 µM)
MBC ([9]; MH Culture Medium): > 64 µg/mL
MBC [10, 46]: > 64 µg/mL
MBC [10, 42]: > 64 µg/mL
MBC ([10]; MH Culture Medium, Mycobacterium avium Rough): > 64 µg/mL
MBC [10, 43]: > 64 µg/mL
